Data from patent US20160089391A1, “Molecular Targets for Cardiovascular Disease” (Temple University-of the Commonwealth System of Higher …, priority 2014, published 2016).

Experiments:
Format in all cases: cell-based, human
[1] = test system: eNOS-pThr495; assay: eNOS-pThr495 protein levels in HAECs; details: for eNOS-pThr497/495 levels increase: HAECs, DL-Hcy 500 μmol/L or D-Glu 25 mmol/L
Experimental: (FIG. 7A). eNOS protein levels in mouse aorta of Cbs^−/+ mice (Left Panel) and HAECs (Right Panel). (FIG. 7B). eNOS-pThr497/495 protein levels in mouse aorta of Cbs^−/+ mice (Left Panel) and in HAECs (Right Panel). At the age of 8-week, Cbs^−/+ mice were fed with a high methionine diet (HM, methionine: 2% w/w) for 8 weeks, and/or injected with streptozotocin (STZ, i.p., 40 mg/kg) for 5 consecutive days starting from the first day of experiment. Mice fed with a control diet (CT, methionine: 0.37% w/w) and injected with vehicle (50 mmol/L citrate buffer) served as controls. Human aortic endothelial cells (HAECs, passage 8-9) were cultured in EC medium which contains 5 mmol/L D-glucose (D-Glu), treated with DL-homocysteine (DL-Hcy, 500 μmol/L) and/or D-Glu (25 mmol/L). (FIG. 7C). eNOS-pThr495 protein levels in HAECs. HAECs (passage 8-9) were cultured in EC medium which contains 5 mmol/L D-glucose (D-Glu), treated with DL-homocysteine (DL-Hcy, 500 μmol/L) and D-Glu (25 mmol/L for 48 hrs with or without non-specific PKC inhibitor GF109203X (GFX) (2 μmol/L, 30 min.); control adenoviruse (Ad-CT, 200 MOI, 72 hrs), dominant negative PKCβ2 adenovirus (Adv-dnPKCβ2, 200 MOI, 72 hrs); μ-calpain siRNA (μ-calpsiRNA, Santa Cruz #sc-29885, 72 hrs), or MDL ([…], 48 hrs, Sigma #M6690). (FIG. 7D). Transfection effect of Adv-dnPKCβ2in HAECs. Cultured HAECs (passage 8, 80% confluence) were treated with 12.5, 25, 50, 100 and 200 MOI Adv-dnPKCβ2 for 48 hrs. n=3, *p<0.05 vs control; †p<0.05 vs DL-Hcy-treated HAECs; ‡p<0.05 vs D-Glu-treated HAECs; #p<0.05 vs DL-Hcy/D-Glu-treated HAECs. Cbs, cystathionine β-synthase; eNOS, endothelial nitric oxide synthase; eNOS-pThr495/497, phosphorylation of eNOS at threonine 497 (mouse)/495 (human).
Human aortic endothelial cells (HAECs) were cultured in cell culture medium (M199, HyClone) as previously described (Wang et al., 1997, J Biol Chem 272:25380-25385). The HAECs were treated with DL-Hcy (200 or 500 μmol/L) and/or D-glucose (D-Glu, 25 mmol/L) for 24 or 48 hrs in the presence or absence of selected pharmacological inhibitors or siRNA or adenovirus.

[2] = test system: eNOS; assay: eNOS protein levels in HAECs
Experimental: (FIG. 7A). eNOS protein levels in mouse aorta of Cbs^−/+ mice (Left Panel) and HAECs (Right Panel). (FIG. 7B). eNOS-pThr497/495 protein levels in mouse aorta of Cbs^−/+ mice (Left Panel) and in HAECs (Right Panel). At the age of 8-week, Cbs^−/+ mice were fed with a high methionine diet (HM, methionine: 2% w/w) for 8 weeks, and/or injected with streptozotocin (STZ, i.p., 40 mg/kg) for 5 consecutive days starting from the first day of experiment. Mice fed with a control diet (CT, methionine: 0.37% w/w) and injected with vehicle (50 mmol/L citrate buffer) served as controls. Human aortic endothelial cells (HAECs, passage 8-9) were cultured in EC medium which contains 5 mmol/L D-glucose (D-Glu), treated with DL-homocysteine (DL-Hcy, 500 μmol/L) and/or D-Glu (25 mmol/L). (FIG. 7C). eNOS-pThr495 protein levels in HAECs. […]

[3] = test system: calpain; assay: t-BOC calpain activity assay in intact HAECs; details: HAECs; DL-Hcy 500 μmol/L and/or D-Glu 25 mmol/L for 48 hrs
Experimental: (FIG. 5A). In situ .O2^− production in aorta. (FIG. 5B). Nitrotyrosine (3-NT) levels. Aortic paraffin-cross sections (7 μm) from Cbs^−/+ mice were stained with 3-NT antibody and 3,3′-diaminobenzidine (DAB, brown). (FIG. 5C). Urinary 8-isoprostane levels. At the age of 8-week, Cbs^+/+ and Cbs^−/+ mice were fed with a high methionine diet (HM, methionine: 2% w/w) for 8 weeks, and/or injected with streptozotocin (STZ, i.p., 40 mg/kg) for 5 consecutive days starting from the first day of experiment. Mice fed with a control diet (CT, methionine: 0.37% w/w) and injected with vehicle (50 mM citrate buffer) served as controls. Aortic cryo-cross sections (30 μm) from Cbs^−/+ mice were stained with the superoxide marker dihydroethidium (DHE, 3 μmol/L, 30 mins.). Urine was collected from 24 hrs metabolic cage. (FIG. 5D). Endothelium-dependent vascular relaxation in HHcy/HG CBS^−/+ mouse aorta in the presence of antioxidants. Arterial rings were pre-contracted with phenylephrine (1 μmol/L) and examined for relaxation to cumulative additions of ACh in the aorta of STZ-treated Cbs^−/+ mice on HM diet. The arterial rings were preincubated with antioxidants polyethylene glycol superoxide dismutase (PEG-SOD, 150 U/mL, Sigma #S9549), Tempol (1 mmol/L, Sigma #176141), or apocynin (10 μmol/L, Sigma #W508454) for 1 hr. n=3-5. *p<0.05 vs vehicle-treated Cbs^−/+ mice on CT diet; †p<0.05 vs vehicle-treated Cbs^−/+ mice on HM diet; ‡p<0.05 vs STZ-treated Cbs^−/+ mice on CT diet; #p<0.05 vs STZ-treated Cbs^−/+ mice on HM diet. (FIG. 5E). […] Calpain activity was measured by the fluorescent substrate t-BOC-Leu-Met-CMAC (T-BOC, 10 μmol/L, 30 min) Human aortic endothelial cells (HAECs, passage 8-9) were cultured in EC medium which contains 5 mmol/L D-glucose (D-Glu), treated with DL-homocysteine (DL-Hcy, 500 μmol/L) and/or D-Glu (25 mmol/L) with or without […] (150 U/mL) or MDL28170 (MDL, 20 μmol/L) for 48 hrs, or CTsiRNA and μ-calpsiRNA for 72 hrs. […] Transfection effect of μ-calpsiRNA in HAECs was detected by Western blot after transfected with the siRNA for indicated time. […]

Molecule | eNOS-pThr497/495 levels increase [1] | decrease of eNOS protein levels ([2]; DL-Hcy 500 μmol/L, 48 hrs) | calpain activity increase [3] | effect on eNOS protein levels ([2]; D-Glu 25 mmol/L, in the presence or absence of DL-Hcy) | HHcy/HG-induced eNOS-pThr495 ([1]; HAECs with DL-Hcy 500 μmol/L and D-Glu 25 mmol/L 48 hrs, GFX 2 μmol/L 30 min, MDL 20 mmol/L 48 hrs, Adv-dnPKCβ2 200 MOI 72 hrs, siRNA 72 hrs)
NC(CCS)C(=O)O (racemic) [DL-Hcy, DL-homocysteine] | 1.6 fold | 59% | 1.8 fold |  | 
O=C[C@H](O)[C@@H](O)[C@H](O)[C@H](O)CO [D-Glu, D-glucose] | 1.5 fold |  | 2.3 fold | no effect | 
MDL28170 |  |  |  |  | completely rescued
